Measurements published in patent publication US6346260B1, “Microbicidal active ingredients” (Ciba Specialty Chemicals Corporation, priority 1999, dated 2002).

Legend:
Type in all cases: cell-based
[1] = tested on: Staphylococcus aureus ATCC 9144; experiment: MIC in microtitre plates, Staphylococcus aureus; conditions: ATCC9144, Table 1, 48 hours at 37° C., ≦20% growth
Method: (§1) Determination of Antimicrobial Activity in Accordance with the Microtitre Plate Method Determination of the Minimum Inhibitory Concentration (MIC value) in Microtitre Plates casein-soybean flour-peptone bouillon for the preparation of the precultures of the test bacteria and yeast. Staphylococcus aureus ATCC 9144 The test substances are predissolved in dimethyl sulfoxide (DMSO) and tested in a dilution series of 1:2. Bacteria and yeast are cultured overnight in CASO bouillon, the mould on mycological slant agar and rinsed off with 10 ml of 0.85% sodium chloride solution (+0.1% TritonX-100). All test organisms are adjusted to an organism count of 1-5*10^6 CFU/ml with 0.85% sodium chloride solution. The test substances are prepipetted into microtitre plates in an amount of 8 μl per well. Previously diluted test organism suspensions are diluted 1:100 in CASO bouillon (bacteria and yeast) and Sabouraud 2% glucose bouillon (mould) and added to the test substances in an amount of 192 μl per well. The test batches are incubated for 48 hours at 37° C. (bacteria and yeast) or for 5 days at 28° C. (mould). After incubation, the growth is determined by reference to the turbidity of the test batches (optical density) at 620 nm in a microplate reader. […]

[2] = tested on: Escherichia coli NCTC 8196; experiment: MIC in microtitre plates, Escherichia coli; conditions: Escherichia coli, NCTC8196; Table 1; NCTC 8196; 48 hours at 37° C.; ≦20% growth; read-out: MIC Escherichia coli
Method: (§2) Determination of Antimicrobial Activity in Accordance with the Microtitre Plate Method Determination of the Minimum Inhibitory Concentration (MIC value) in Microtitre Plates casein-soybean flour-peptone bouillon for the preparation of the precultures of the test bacteria and yeast. Escherichia coli NCTC 8196 The test substances are predissolved in dimethyl sulfoxide (DMSO) and tested in a dilution series of 1:2. Bacteria and yeast are cultured overnight in CASO bouillon, the mould on mycological slant agar and rinsed off with 10 ml of 0.85% sodium chloride solution (+0.1% TritonX-100). All test organisms are adjusted to an organism count of 1-5*10^6 CFU/ml with 0.85% sodium chloride solution. The test substances are prepipetted into microtitre plates in an amount of 8 μl per well. Previously diluted test organism suspensions are diluted 1:100 in CASO bouillon (bacteria and yeast) and Sabouraud 2% glucose bouillon (mould) and added to the test substances in an amount of 192 μl per well. The test batches are incubated for 48 hours at 37° C. (bacteria and yeast) or for 5 days at 28° C. (mould). After incubation, the growth is determined by reference to the turbidity of the test batches (optical density) at 620 nm in a microplate reader. The minimum inhibitory concentration (MIC value) is the concentration of substance at which (compared with the growth of the control) an appreciable inhibition of the growth (≦20% growth) of the test organisms is ascertained. One microtitre plate is used for each test organism and substance concentration. All substances are tested in duplicate.

[3] = tested on: Candida albicans ATCC 10231; experiment: MIC in microtitre plates, Candida albicans; conditions: Candida albicans, ATCC10231; Table 1; ATCC 10231; 48 hours at 37° C.; ≦20% growth; read-out: MIC Candida albicans
Method: as §2, with “Candida albicans ATCC 10231” for “Escherichia coli NCTC 8196”

[4] = tested on: Rhizopus stolonifer DSM 63011; experiment: MIC in microtitre plates, Rhizopus stolonifer; conditions: DSM63011, 120 h, Table 1, 5 days at 28° C., ≦20% growth
Method: as §1, with “Mycological slant agar” for “casein-soybean flour-peptone bouillon”, “preculture” for “preparation”, “moulds. Rhizopus stolonifer DSM 63011” for “the precultures of the test bacteria and yeast. Staphylococcus aureus ATCC 9144”

`O=C(CC(=O)c1ccccc1O)c1ccco1` [Compound of formula (101)] gave an MIC [1] of 100 to 500 µg/mL, an MIC [2] of 50 µg/mL and an MIC [3] of 100 to 500 µg/mL. It also gave an MIC [4] of 50 µg/mL.
